# ChEMBL document CHEMBL1139199 (Bioorg Med Chem Lett, 2007)
# How the values were obtained:
# [1] = Plasma clearance in rat at 1 mg/kg, iv or 2 mg/kg, po; assay type: ADME, organism-based
# [2] = Oral bioavailability in rat at 2 mg/kg, po; assay type: ADME, organism-based; details: in vivo
# [3] = Oral bioavailability in dog at 2 mg/kg, po; assay type: ADME, organism-based, Canis lupus familiaris; details: in vivo
# Mus musculus = species: Mus musculus; assay: Reduction of blood glucose excursion in mouse by OGTT; assay type: functional, organism-based
# [4] = Plasma clearance in dog at 1 mg/kg, iv or 2 mg/kg, po; assay type: ADME, organism-based, Canis lupus familiaris
# [5] = biological target: Voltage-gated inwardly rectifying potassium channel KCNH2 (Homo sapiens, UniProt Q12809); assay: Inhibition of cardiac hERG
# Dipeptidyl peptidase 9 = Dipeptidyl peptidase 9 (Homo sapiens, UniProt Q86TI2); assay: Inhibition of human DPP9 after 15 mins by continuous fluorescent assay
# Dipeptidyl peptidase 8 = Dipeptidyl peptidase 8 (Homo sapiens, UniProt Q6V1X1); assay: Inhibition of human DPP8 after 15 mins by continuous fluorescent assay
# Dipeptidyl peptidase 2 = Dipeptidyl peptidase 2 (Homo sapiens, UniProt Q9UHL4); assay: Inhibition of human recombinant QPP expressed in SF9 cells
# Sequence of Dipeptidyl peptidase 9 (Q86TI2 whole entry): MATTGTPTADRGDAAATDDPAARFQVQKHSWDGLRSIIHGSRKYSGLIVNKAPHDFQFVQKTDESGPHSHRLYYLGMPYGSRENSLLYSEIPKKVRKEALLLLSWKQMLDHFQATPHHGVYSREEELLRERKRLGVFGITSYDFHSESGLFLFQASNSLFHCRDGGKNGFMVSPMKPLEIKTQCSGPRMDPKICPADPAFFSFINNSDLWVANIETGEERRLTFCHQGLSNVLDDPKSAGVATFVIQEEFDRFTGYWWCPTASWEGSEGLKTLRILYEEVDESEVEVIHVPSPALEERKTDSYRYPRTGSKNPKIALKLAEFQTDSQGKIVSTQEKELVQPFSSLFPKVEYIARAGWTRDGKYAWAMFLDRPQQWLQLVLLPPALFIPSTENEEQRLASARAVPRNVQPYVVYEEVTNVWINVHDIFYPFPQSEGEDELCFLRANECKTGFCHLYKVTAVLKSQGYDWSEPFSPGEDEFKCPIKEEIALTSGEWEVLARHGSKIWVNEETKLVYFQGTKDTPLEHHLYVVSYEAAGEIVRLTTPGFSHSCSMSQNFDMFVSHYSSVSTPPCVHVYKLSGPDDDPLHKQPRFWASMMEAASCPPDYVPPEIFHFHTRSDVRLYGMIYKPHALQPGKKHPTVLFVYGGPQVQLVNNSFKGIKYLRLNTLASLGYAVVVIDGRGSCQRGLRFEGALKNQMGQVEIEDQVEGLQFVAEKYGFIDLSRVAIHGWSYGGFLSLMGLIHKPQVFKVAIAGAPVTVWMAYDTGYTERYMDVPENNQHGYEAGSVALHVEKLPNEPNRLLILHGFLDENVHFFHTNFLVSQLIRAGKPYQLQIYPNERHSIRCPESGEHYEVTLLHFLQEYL
# Sequence of Dipeptidyl peptidase 8 (Q6V1X1 whole entry): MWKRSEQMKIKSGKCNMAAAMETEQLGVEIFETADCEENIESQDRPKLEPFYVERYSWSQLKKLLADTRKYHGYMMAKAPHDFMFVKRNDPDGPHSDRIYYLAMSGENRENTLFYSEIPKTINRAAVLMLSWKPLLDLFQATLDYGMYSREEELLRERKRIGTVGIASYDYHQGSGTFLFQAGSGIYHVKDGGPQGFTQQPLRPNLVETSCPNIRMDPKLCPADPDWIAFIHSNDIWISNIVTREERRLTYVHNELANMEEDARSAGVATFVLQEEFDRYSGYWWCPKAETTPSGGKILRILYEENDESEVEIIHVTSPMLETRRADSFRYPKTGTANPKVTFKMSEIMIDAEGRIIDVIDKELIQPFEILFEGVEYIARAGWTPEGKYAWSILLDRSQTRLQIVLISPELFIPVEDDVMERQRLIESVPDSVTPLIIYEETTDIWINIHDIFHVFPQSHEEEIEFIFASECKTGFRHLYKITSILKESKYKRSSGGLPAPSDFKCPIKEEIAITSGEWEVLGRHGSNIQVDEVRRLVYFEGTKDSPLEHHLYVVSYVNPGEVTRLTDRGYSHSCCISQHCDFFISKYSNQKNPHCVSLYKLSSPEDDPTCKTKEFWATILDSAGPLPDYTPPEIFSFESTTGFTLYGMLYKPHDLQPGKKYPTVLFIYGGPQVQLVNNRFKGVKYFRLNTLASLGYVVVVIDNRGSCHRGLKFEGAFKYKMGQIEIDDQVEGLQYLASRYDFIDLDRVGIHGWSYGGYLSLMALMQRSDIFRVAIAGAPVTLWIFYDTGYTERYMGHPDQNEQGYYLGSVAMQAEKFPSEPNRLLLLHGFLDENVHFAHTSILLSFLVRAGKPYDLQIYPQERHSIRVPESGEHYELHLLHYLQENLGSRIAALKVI
# Sequence of Voltage-gated inwardly rectifying potassium channel KCNH2 (Q12809 whole entry): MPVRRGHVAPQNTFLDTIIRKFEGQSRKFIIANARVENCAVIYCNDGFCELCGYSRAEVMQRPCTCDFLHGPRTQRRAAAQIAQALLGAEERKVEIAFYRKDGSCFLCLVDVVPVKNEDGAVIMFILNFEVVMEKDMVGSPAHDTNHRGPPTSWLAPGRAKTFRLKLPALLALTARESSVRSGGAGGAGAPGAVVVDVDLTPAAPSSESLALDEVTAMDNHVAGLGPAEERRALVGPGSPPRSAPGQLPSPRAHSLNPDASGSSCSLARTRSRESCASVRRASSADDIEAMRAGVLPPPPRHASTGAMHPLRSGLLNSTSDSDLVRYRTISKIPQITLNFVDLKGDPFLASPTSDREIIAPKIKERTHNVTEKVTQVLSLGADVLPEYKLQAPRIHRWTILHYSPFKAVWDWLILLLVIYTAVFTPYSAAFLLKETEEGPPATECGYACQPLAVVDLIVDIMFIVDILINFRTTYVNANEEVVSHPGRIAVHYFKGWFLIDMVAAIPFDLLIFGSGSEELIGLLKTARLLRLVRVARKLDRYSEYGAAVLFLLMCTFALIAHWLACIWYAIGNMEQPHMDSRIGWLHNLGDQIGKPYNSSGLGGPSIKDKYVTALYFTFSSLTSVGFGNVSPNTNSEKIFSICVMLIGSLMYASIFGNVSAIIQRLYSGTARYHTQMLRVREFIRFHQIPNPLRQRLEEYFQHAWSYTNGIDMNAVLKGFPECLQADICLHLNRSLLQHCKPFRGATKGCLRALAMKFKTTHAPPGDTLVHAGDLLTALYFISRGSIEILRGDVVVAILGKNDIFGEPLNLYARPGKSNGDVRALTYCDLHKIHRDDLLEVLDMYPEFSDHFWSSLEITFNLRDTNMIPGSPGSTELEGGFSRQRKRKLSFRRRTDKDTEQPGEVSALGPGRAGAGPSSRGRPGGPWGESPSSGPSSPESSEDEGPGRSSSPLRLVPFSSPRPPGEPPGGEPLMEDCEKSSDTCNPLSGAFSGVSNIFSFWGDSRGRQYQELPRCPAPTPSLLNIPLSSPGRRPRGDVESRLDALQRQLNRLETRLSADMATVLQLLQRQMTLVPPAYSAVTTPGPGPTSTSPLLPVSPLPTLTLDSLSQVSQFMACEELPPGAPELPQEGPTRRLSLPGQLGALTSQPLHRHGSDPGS
SMILES,clearance [1],bioavailability [2],IC50 (Dipeptidyl peptidase 9),IC50 (Dipeptidyl peptidase 8),other results
C[C@@H](C1CCC(N(C)C(=O)c2cccc(F)c2)CC1)[C@H](N)C(=O)N1CC[C@H](F)C1.Cl (some centres undefined),40 mL/min/kg,72%,–,–,–
CC(=O)N(C)C1CCC([C@H](C)[C@H](N)C(=O)N2CC[C@H](F)C2)CC1.Cl (some centres undefined),42 mL/min/kg,56%,> 100 µM,–,bioavailability [3]: 83%; Activity (Mus musculus): Dose-dependent effect; clearance [4]: 4.4 mL/min/kg; IC50 [5]: > 90 µM
CC(=O)Nc1ccc([C@H](C)[C@H](N)C(=O)N2CC[C@H](F)C2)cc1,–,–,> 100 µM,–,–
CC(=O)N(C)C1CCC([C@H](C(=O)N(C)C)[C@H](N)C(=O)N2CC[C@H](F)C2)CC1.Cl (some centres undefined),18 mL/min/kg,3%,> 100 µM,> 100 µM,–
Cl.N[C@H](C(=O)N1CC[C@H](F)C1)C1CCC(NS(=O)(=O)c2ccc(F)cc2F)CC1 (some centres undefined),24 mL/min/kg,–,–,–,–
CN(C)C(=O)[C@@H](C1CCC(NS(=O)(=O)c2ccc(OC(F)(F)F)cc2)CC1)[C@H](N)C(=O)N1CC[C@H](F)C1 (some centres undefined),–,–,> 100 µM,> 100 µM,–
CN(C)C(=O)[C@@H](c1ccc(NS(=O)(=O)c2ccccc2)cc1)[C@H](N)C(=O)N1CC[C@H](F)C1,–,–,> 100 µM,> 100 µM,–
C[C@@H](C1CCC(N(C)C(=O)C2CC2)CC1)[C@H](N)C(=O)N1CC[C@H](F)C1.Cl (some centres undefined),49 mL/min/kg,46%,–,–,–
CC(=O)Nc1ccc([C@H](C(=O)N(C)C)[C@H](N)C(=O)N2CC[C@H](F)C2)cc1,–,–,> 100 µM,–,IC50 (Dipeptidyl peptidase 2): > 100 µM
CN(C)C(=O)[C@@H](C1CCC(N(C)C(=O)c2cccc(F)c2)CC1)[C@H](N)C(=O)N1CC[C@H](F)C1.Cl (some centres undefined),27 mL/min/kg,25%,> 100 µM,> 100 µM,IC50 [5]: > 90 µM
C[C@@H](c1ccc(N(C)C(=O)c2ccc(F)cc2)cc1)[C@H](N)C(=O)N1CC[C@H](F)C1,–,–,> 100 µM,> 100 µM,–
CN(C)C(=O)[C@@H](C1CCC(NS(=O)(=O)c2ccc(F)cc2F)CC1)[C@H](N)C(=O)N1CC[C@H](F)C1 (some centres undefined),–,–,> 100 µM,> 100 µM,–
CC(=O)N(C)c1ccc([C@H](C)[C@H](N)C(=O)N2CC[C@H](F)C2)cc1,–,–,> 100 µM,> 100 µM,–
Cc1ccc(S(=O)(=O)N(C)c2ccc([C@H](C(=O)N(C)C)[C@H](N)C(=O)N3CC[C@H](F)C3)cc2)cc1,–,–,> 100 µM,> 100 µM,IC50 (Dipeptidyl peptidase 2): > 100 µM
CN(C)C(=O)[C@@H](c1ccc(N(C)C(=O)c2ccc(F)cc2)cc1)[C@H](N)C(=O)N1CC[C@H](F)C1.O=C(O)C(F)(F)F,73 mL/min/kg,6%,> 100 µM,> 100 µM,IC50 (Dipeptidyl peptidase 2): > 100 µM; IC50 [5]: > 90 µM
CC(=O)N(C)c1ccc([C@H](C(=O)N(C)C)[C@H](N)C(=O)N2CC[C@H](F)C2)cc1,–,–,> 100 µM,> 100 µM,IC50 (Dipeptidyl peptidase 2): > 100 µM
Cc1ccc(C(=O)N(C)c2ccc([C@H](C(=O)N(C)C)[C@H](N)C(=O)N3CC[C@H](F)C3)cc2)cc1,–,–,> 100 µM,> 100 µM,IC50 (Dipeptidyl peptidase 2): > 100 µM
